This series relates to Salmonella typhimurium tester strains TA97a, TA98, TA100, TA102, TA1537 and TA1538. To be noted: for revertant colonies, TA98 -S9 / revertant colonies, TA98 +S9: Table 19 (A) experiment; for revertant colonies, TA98 -S9: background 17; for revertant colonies, TA98 +S9: background 28; for revertant colonies, TA1537 +S9 / revertant colonies, TA1537 -S9: Table 19 (B) experiment; for revertant colonies, TA1537 +S9: background 7; for revertant colonies, TA1537 -S9: background 8. In a few lines:
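Ames pre-incubation test in S. typhimurium TA97a, TA98, TA1537, TA1538 (frameshift) and TA100, TA102 (base-substitution), with or without 10% Aroclor 1254-induced rat liver S-9. Test solutions at 0–500 µg/mL pre-incubated 20 min at 37 °C, plated in histidine/biotin top agar; revertant colonies counted after 44 h at 37 °C.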

The structures appear in SMILES notation. Where two headings read alike, the source gives them in different places.

On to `Cc1cc(=O)oc2c(C)c3oc(COCCN)c(C)c3cc12` [Compound 18, 5'-(4-amino-2-oxa)butyl-4,4',8-trimethylpsoralen], for which the “revertant colonies, TA98 -S9” value (10 µg/plate) stood at 21; the “revertant colonies, TA98 -S9” value (50 µg/plate) is 303; the “revertant colonies, TA98 -S9” value (100 µg/plate) is listed as 390; the “revertant colonies, TA98 -S9” value (200 µg/plate) worked out at 225. Also, the “revertant colonies, TA98 +S9” value was found to be 8 (10 µg/plate), 6 (50 µg/plate), 26 (100 µg/plate) and 42 (200 µg/plate). Further, the “revertant colonies, TA1537 +S9” value is 8 (10 µg/plate), 6 (50 µg/plate), 26 (100 µg/plate) and 42 (200 µg/plate). The “revertant colonies, TA1537 -S9” value reads like this: (10 µg/plate) 21; (50 µg/plate) 303; (100 µg/plate) 390; (200 µg/plate) 225. For the same compound, under “two-fold or greater increase in revertants above background and dose dependent response”, the “mutagenic response (Ames, summary)” value was “only a weak response at high concentrations in the presence of S9 in strains TA 9o and TA 1537”.

For the origin of these results see patent EP0840781B1, “METHODS AND DEVICES FOR THE REMOVAL OF PSORALENS FROM BLOOD PRODUCTS” (Cerus Corporation, priority 1995, dated 1996).
